Laboratory results from patent publication US20260098008A1, “COVALENT, CHEMOGENETIC ACTIVATORS FOR K2P POTASSIUM CHANNELS AND USES THEREOF” (THE REGENTS OF THE UNIVERSITY OF CALIFORNIA, priority 2022, published 2026).

Biological target: T1, K2P10.1 (TREK-2)^CG* (Mus musculus, UniProt Q8BUW1, S153C)
T1 construct: Modified TREK-2 from Mus musculus; expressed in transfected cells; host or cells: Xenopus laevis oocytes injected with mRNA
T1 sequence (Q8BUW1 with tags, fused parts or gaps S153C): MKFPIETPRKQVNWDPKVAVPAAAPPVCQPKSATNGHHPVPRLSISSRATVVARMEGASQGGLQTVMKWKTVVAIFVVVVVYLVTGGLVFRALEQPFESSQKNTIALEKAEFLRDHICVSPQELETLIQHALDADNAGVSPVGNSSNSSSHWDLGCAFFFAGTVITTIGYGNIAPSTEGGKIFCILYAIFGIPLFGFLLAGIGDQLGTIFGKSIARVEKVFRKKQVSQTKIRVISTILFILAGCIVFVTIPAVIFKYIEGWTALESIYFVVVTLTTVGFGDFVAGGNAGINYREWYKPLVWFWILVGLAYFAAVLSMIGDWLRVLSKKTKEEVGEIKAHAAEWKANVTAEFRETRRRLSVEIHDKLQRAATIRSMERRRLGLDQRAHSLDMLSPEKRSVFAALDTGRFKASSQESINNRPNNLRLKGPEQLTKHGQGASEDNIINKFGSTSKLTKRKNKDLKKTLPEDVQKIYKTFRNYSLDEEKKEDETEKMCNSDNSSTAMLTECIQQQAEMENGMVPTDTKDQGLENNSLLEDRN
Test: TEVC in Xenopus oocytes
Assay type: cell-based
Conditions: 20 μM, Xenopus oocytes

Fold-activation (I activator/I control) (0 mV): 18±2 fold
Reversibility of activation: irreversibly activated
Structure (SMILES): O=C(NCc1ccc(Cl)cc1Cl)c1ccc(N2C(=O)C=CC2=O)cc1 [CAT335]
